Test results taken from ChEMBL document CHEMBL3044700, “Molecular modeling and protection against pentylenetetrazole-induced seizure of new 1,4-dihydropyridines containing 5(4)-imidazolyl substituent” (Med Chem Res, 2012).
The source made the active and inactive calls. The calls are words filed in the database; no cut-off is given here.

Legend:
Mus musculus [1] = test: Anticonvulsant activity in Mus musculus NMRI (mouse) assessed as protection against pentylenetetrazole-induced seizures at 5 to 20 mg/kg, ip administered 30 min prior to pentylenetetrazole induction relative to vehicle-treated control; format: functional, organism-based
Mus musculus [2] = test: Anticonvulsant activity in Mus musculus NMRI (mouse) assessed as protection against pentylenetetrazole-induced seizures at 20 mg/kg, ip administered 30 min prior to pentylenetetrazole induction relative to vehicle-treated control; format: functional, organism-based; parameters: dose 20 mg/kg

Row | Compound | Activity (Mus musculus [1]) | Activity (Mus musculus [2])
1 | CCc1nc(C2C(C(=O)OCc3ccccc3)=C(C)NC(C)=C2C(=O)OCc2ccccc2)c(Cl)[nH]1 | Active | –
2 | CCc1nc(C2C(C(=O)OCCc3ccccc3)=C(C)NC(C)=C2C(=O)OCCc2ccccc2)c(Cl)[nH]1 | Active | –
3 | COC(=O)C1=C(C)NC(C)=C(C(=O)OC)C1c1ccccc1[N+](=O)[O-] | – | Active
4 | CCOC(=O)C1=C(C)NC(C)=C(C(=O)OCCc2ccccc2)C1c1nc(CC)[nH]c1Cl (stereo not drawn) | Active | –
5 | CC1=C(C(=O)OCCCc2ccccc2)C(c2nc[nH]c2Cl)C(C(=O)OCCCc2ccccc2)=C(C)N1 | Active | –
6 | CCc1nc(C2C(C(=O)OC)=C(C)NC(C)=C2C(=O)OCCc2ccccc2)c(Cl)[nH]1 (stereo not drawn) | Active | –
7 | CC1=C(C(=O)OCc2ccccc2)C(c2nc[nH]c2Cl)C(C(=O)OCc2ccccc2)=C(C)N1 | Active | –
8 | CC1=C(C(=O)OCCc2ccccc2)C(c2nc[nH]c2Cl)C(C(=O)OCCc2ccccc2)=C(C)N1 | Active | –
